Target: T1, recombinant integrin α4β7 (Homo sapiens, UniProt P13612+P26010, DEL724-798)
T1 construct: purchased R&D Systems 5397-A3-050
T1 sequence (P13612 34-970 limits assumed): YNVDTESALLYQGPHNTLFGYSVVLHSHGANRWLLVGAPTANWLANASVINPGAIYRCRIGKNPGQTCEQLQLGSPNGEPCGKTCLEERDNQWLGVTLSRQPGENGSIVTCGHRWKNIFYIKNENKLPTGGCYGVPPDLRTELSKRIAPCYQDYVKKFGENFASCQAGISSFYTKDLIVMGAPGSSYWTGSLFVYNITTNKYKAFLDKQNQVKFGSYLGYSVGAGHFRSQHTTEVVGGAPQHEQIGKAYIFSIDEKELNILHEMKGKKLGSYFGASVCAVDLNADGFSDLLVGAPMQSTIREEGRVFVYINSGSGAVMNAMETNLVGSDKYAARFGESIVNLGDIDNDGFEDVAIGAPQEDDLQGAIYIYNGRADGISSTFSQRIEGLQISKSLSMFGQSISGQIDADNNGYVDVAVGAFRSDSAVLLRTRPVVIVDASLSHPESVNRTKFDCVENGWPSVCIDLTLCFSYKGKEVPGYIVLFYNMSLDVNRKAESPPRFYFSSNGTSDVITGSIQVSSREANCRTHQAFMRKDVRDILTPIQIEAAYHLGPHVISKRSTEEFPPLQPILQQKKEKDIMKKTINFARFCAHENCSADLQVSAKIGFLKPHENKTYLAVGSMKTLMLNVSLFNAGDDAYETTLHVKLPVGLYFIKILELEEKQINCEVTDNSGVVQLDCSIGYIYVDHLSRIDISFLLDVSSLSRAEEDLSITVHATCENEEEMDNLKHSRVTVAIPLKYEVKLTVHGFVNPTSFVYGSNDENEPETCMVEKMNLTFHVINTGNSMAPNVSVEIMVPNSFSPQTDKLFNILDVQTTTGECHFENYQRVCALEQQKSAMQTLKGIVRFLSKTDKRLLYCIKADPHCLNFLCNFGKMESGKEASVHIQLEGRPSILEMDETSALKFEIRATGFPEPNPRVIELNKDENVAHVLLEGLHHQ
T1 sequence (P26010 20-723 limits assumed): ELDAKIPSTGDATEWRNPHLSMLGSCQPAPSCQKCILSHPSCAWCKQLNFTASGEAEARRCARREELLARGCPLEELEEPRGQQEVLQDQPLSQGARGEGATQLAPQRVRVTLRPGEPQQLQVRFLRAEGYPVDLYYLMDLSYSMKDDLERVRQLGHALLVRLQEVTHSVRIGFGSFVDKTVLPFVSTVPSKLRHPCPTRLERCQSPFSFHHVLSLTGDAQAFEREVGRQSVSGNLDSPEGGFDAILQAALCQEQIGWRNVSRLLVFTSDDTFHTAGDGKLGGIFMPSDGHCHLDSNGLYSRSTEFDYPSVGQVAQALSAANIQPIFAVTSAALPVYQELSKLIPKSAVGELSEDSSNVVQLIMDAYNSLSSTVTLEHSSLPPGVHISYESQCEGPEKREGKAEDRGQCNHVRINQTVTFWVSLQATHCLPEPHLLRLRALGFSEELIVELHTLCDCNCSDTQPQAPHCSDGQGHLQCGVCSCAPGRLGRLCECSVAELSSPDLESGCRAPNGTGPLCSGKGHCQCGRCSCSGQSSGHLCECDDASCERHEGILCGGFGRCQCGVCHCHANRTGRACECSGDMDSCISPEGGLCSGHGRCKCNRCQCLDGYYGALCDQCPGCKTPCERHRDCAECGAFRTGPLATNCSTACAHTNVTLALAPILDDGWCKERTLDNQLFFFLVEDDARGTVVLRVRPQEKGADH
Assay: Integrin α4β7—MAdCAM-1 ELISA competition assay
Format: binding
Conditions: for ELISA Assay Ratio b1/b7: ratio of a4b1 to a4b7 ELISA IC50; for IC50: read-out: ELISA a4b7 Assay IC50

| SMILES | ELISA Assay Ratio b1/b7 | IC50 [nM] |
| --- | --- | --- |
| CC(C)C[C@@H]1NC(=O)[C@H](Cc2ccc(O)cc2)NC(=O)[C@@H]2CCCN2C(C(=O)NC(C)(C)C)C(CSc2ccccc2)NC(=O)[C@H](C(C)C)NC(=O)[C@H](CC(=O)O)NC1=O (stereo partly drawn) [Compound 1] | 0.988 |  |
| CC(C)C[C@@H]1NC(=O)[C@H](Cc2ccc(O)cc2)NC(=O)[C@@H]2CCCN2C(C(=O)NC(C)(C)C)C(CSc2ccccc2)NC(=O)[C@H]([C@@H](C)O)NC(=O)[C@H](CC(=O)O)NC1=O (stereo partly drawn) [Compound 3] | 2.474 |  |
| CC[C@H](C)[C@@H]1NC(=O)[C@H](CC(=O)O)NC(=O)[C@H](CC(C)C)NC(=O)[C@H](Cc2c[nH]c3ccccc23)NC(=O)[C@@H]2CCCN2[C@H](C(=O)NC(C)(C)C)[C@H](C)NC1=O [Compound 8] |  | 103 |
| CC(C)C[C@@H]1NC(=O)[C@H](Cc2ccc(-c3ccccc3)cc2)NC(=O)[C@@H]2CCCN2[C@H](C(=O)NC(C)(C)C)[C@H](C)NC(=O)[C@H]([C@@H](C)OCc2ccccc2)NC(=O)[C@H](CC(=O)O)NC1=O [Compound 18] |  | 120 |
| CC[C@H](C)[C@@H]1NC(=O)[C@H](CC(=O)O)NC(=O)[C@H](CC(C)C)NC(=O)[C@H](Cc2ccc(O)cc2)NC(=O)[C@@H]2CCCN2[C@H](C(=O)NC(C)(C)C)[C@H](C)NC1=O [Compound 53] |  | 182 |
| CC(C)C[C@@H]1NC(=O)[C@H](Cc2ccncc2)NC(=O)[C@@H]2CCCN2[C@H](C(=O)NC(C)(C)C)[C@H](C)NC(=O)[C@H]([C@@H](C)O)NC(=O)[C@H](CC(=O)O)NC1=O [Compound 54] |  | 190 |
| CC(C)C[C@@H]1NC(=O)[C@@H](Cc2ccncc2)NC(=O)[C@@H]2CCCN2[C@H](C(=O)NC(C)(C)C)[C@H](C)NC(=O)[C@H]([C@@H](C)O)NC(=O)[C@H](CC(=O)O)NC1=O [Compound 62] | 4.3 | 27 |
| CC(C)C[C@@H]1NC(=O)[C@@H]2C[C@@H](O)CN2C(=O)[C@@H]2CCCN2[C@H](C(=O)NC(C)(C)C)[C@H](C)NC(=O)[C@H]([C@@H](C)O)NC(=O)[C@H](CC(=O)O)NC1=O [Compound 63] |  | 107 |
| CCC[C@@H]1NC(=O)[C@@H]2CCCN2[C@H](C(=O)NC(C)(C)C)[C@H](C)NC(=O)[C@H]([C@@H](C)O)NC(=O)[C@H](CC(=O)O)NC(=O)[C@H](CC(C)C)NC1=O [Compound 71] | 4.4 | 184 |
| CC(C)C[C@@H]1NC(=O)[C@H](Cc2csc(-c3cccnc3)n2)NC(=O)[C@@H]2CCCN2[C@H](C(=O)NC(C)(C)C)[C@H](C)NC(=O)[C@H]([C@@H](C)O)NC(=O)[C@H](CC(=O)O)NC1=O [Compound 96] |  | 138 |
| CC(C)C[C@@H]1NC(=O)[C@@H]2c3ccccc3CN2C(=O)[C@@H]2CCCN2[C@H](C(=O)NC(C)(C)C)[C@H](C)NC(=O)[C@H]([C@@H](C)O)NC(=O)[C@H](CC(=O)O)NC1=O [Compound 99] |  | 57 |
| CC(C)C[C@@H]1NC(=O)[C@H]2CCCN2C(=O)[C@H](Cc2cc(F)c(F)c(F)c2)NC(=O)[C@@H]2CCCN2[C@H](C(=O)NC(C)(C)C)[C@H](C)NC(=O)[C@H]([C@@H](C)O)NC(=O)[C@H](CC(=O)O)NC1=O [Compound 128] | 11.4 | 26 |
| CC(C)C[C@@H]1NC(=O)[C@H]2CCCCN2C(=O)[C@H](Cc2ccccc2-c2ccccc2)NC(=O)[C@@H]2CCCN2[C@H](C(=O)NC(C)(C)C)[C@H](C)NC(=O)[C@H]([C@@H](C)O)NC(=O)[C@H](CC(=O)O)NC1=O [Compound 134] | 7.6 | 23 |
| COc1ccc(-c2ccccc2C[C@@H]2NC(=O)[C@@H]3CCCN3[C@H](C(=O)NC(C)(C)C)[C@H](C)NC(=O)[C@H]([C@@H](C)O)NC(=O)[C@H](CC(=O)O)NC(=O)[C@H](CC(C)C)NC(=O)[C@H]3CCCCN3C2=O)cc1 [Compound 137] | 7.8 | 33 |
| CC(C)C[C@@H]1NC(=O)[C@H]2C[C@H](O)CN2C(=O)[C@H](Cc2ccc(O)cc2)NC(=O)[C@@H]2CCCN2[C@H](C(=O)NC(C)(C)C)[C@H](C)NC(=O)[C@H]([C@@H](C)O)NC(=O)[C@H](CC(=O)O)NC1=O [Compound 140] | 9.6 | 53 |
